Test system: SEM cells
Test: cell viability relative to DMSO control; higher = less cytotoxic
Details: 48 h
In short: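 NOMO1 or SEM (500 cells/well) or P12-Ichikawa (1000 cells/well) leukemia cells were adapted for at least four passages in each medium. They were seeded in 1536-well plates (5 μl) and pin-dosed with library compounds in DMSO over an 11-point threefold series, 47 μM to 0.79 nM. CellTiter-Glo One luminescence was read after 48 h at 37°C. Viability is the per-plate percentage relative to DMSO wells, with cell-free wells as background.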

[1] = HPLM + 10% dialyzed FBS, 0.000781 µM
[2] = HPLM + 10% dialyzed FBS, 0.00234 µM
[3] = HPLM + 10% dialyzed FBS, 0.00702 µM
[4] = HPLM + 10% dialyzed FBS, 0.0211 µM
[5] = HPLM + 10% dialyzed FBS, 0.0632 µM
[6] = HPLM + 10% dialyzed FBS, 0.19 µM
[7] = HPLM + 10% dialyzed FBS, 0.569 µM
[8] = HPLM + 10% dialyzed FBS, 1.71 µM
[9] = HPLM + 10% dialyzed FBS, 5.12 µM
[10] = HPLM + 10% dialyzed FBS, 15.4 µM
[11] = HPLM + 10% dialyzed FBS, 46.1 µM
[12] = RPMI 5 mM glucose + 10% FBS, 0.000781 µM
[13] = RPMI 5 mM glucose + 10% FBS, 0.00234 µM
[14] = RPMI 5 mM glucose + 10% FBS, 0.00702 µM
[15] = RPMI 5 mM glucose + 10% FBS, 0.0211 µM
[16] = RPMI 5 mM glucose + 10% FBS, 0.0632 µM
[17] = RPMI 5 mM glucose + 10% FBS, 0.19 µM
[18] = RPMI 5 mM glucose + 10% FBS, 0.569 µM
[19] = RPMI 5 mM glucose + 10% FBS, 1.71 µM
[20] = RPMI 5 mM glucose + 10% FBS, 5.12 µM
[21] = RPMI 5 mM glucose + 10% FBS, 15.4 µM
[22] = RPMI 5 mM glucose + 10% FBS, 46.1 µM
[23] = RPMI 5 mM glucose + 10% dialyzed FBS, 0.000781 µM
[24] = RPMI 5 mM glucose + 10% dialyzed FBS, 0.00234 µM
[25] = RPMI 5 mM glucose + 10% dialyzed FBS, 0.00702 µM
[26] = RPMI 5 mM glucose + 10% dialyzed FBS, 0.0211 µM
[27] = RPMI 5 mM glucose + 10% dialyzed FBS, 0.0632 µM
[28] = RPMI 5 mM glucose + 10% dialyzed FBS, 0.19 µM
[29] = RPMI 5 mM glucose + 10% dialyzed FBS, 0.569 µM
[30] = RPMI 5 mM glucose + 10% dialyzed FBS, 1.71 µM
[31] = RPMI 5 mM glucose + 10% dialyzed FBS, 5.12 µM
[32] = RPMI 5 mM glucose + 10% dialyzed FBS, 15.4 µM
[33] = RPMI 5 mM glucose + 10% dialyzed FBS, 46.1 µM

| Compound | cell viability [1] | cell viability [2] | cell viability [3] | cell viability [4] | cell viability [5] | cell viability [6] | cell viability [7] | cell viability [8] | cell viability [9] | cell viability [10] | cell viability [11] | cell viability [12] | cell viability [13] | cell viability [14] | cell viability [15] | cell viability [16] | cell viability [17] | cell viability [18] | cell viability [19] | cell viability [20] | cell viability [21] | cell viability [22] | cell viability [23] | cell viability [24] | cell viability [25] | cell viability [26] | cell viability [27] | cell viability [28] | cell viability [29] | cell viability [30] | cell viability [31] | cell viability [32] | cell viability [33] |
| --- | --- | --- | --- | --- | --- | --- | --- | --- | --- | --- | --- | --- | --- | --- | --- | --- | --- | --- | --- | --- | --- | --- | --- | --- | --- | --- | --- | --- | --- | --- | --- | --- | --- |
| COc1cc(N2CCC(N3CCN(C)CC3)CC2)ccc1Nc1ncnc(Nc2ccccc2[S+](=O)([O-])C(C)C)n1 | 69.6% | 81.5% | 85.8% | 99.3% | 67.4% | 106% | 104% | 88.4% | 67.6% | 25.2% | 11.9% | 71.3% | 72.6% | 90.7% | 93.8% | 59.6% | 123% | 109% | 81% | 59.4% | 22.5% | 7.39% | 87.4% | 90.2% | 82.2% | 85.7% | 69.8% | 132% | 127% | 109% | 72.7% | 26.4% | 12.9% |
| O=C(Oc1ccc([N+](=O)[O-])cc1)N1CCN(Cc2cccc(Oc3ccccc3)c2)CC1 | 94.6% | 100% | 93.4% | 106% | 103% | 64.4% | 120% | 116% | 107% | 107% | 121% | 90.4% | 86.1% | 99.5% | 106% | 93.6% | 67.1% | 111% | 106% | 102% | 95.9% | 101% | 112% | 108% | 108% | 125% | 115% | 60.9% | 109% | 108% | 114% | 110% | 121% |
| CCC(=O)O[C@@]1([C@H](C)C[C@H]2[C@@H]3C[C@H](F)\C4=C\C(=O)\C=C/[C@]4(C)[C@@]3(F)[C@@H](O)C[C@]12C)C(=O)SCF | 96.6% | 102% | 94.7% | 68% | 60.6% | 13.1% | 66.1% | 79.4% | 64.9% | 61.9% | 58% | 94.2% | 103% | 88.6% | 67.8% | 53.2% | 13.1% | 68.6% | 73% | 68.6% | 59.5% | 59.6% | 98.1% | 124% | 83.6% | 73.5% | 40.5% | 11.7% | 58.8% | 63.4% | 60.6% | 53.3% | 53.4% |
| CN(C)[C@H]\1[C@@H]2[C@@H](O)[C@@H]\3C(=C)C4=C(C(=CC=C4)O)C(=O)C3=C(\O)[C@@]2(O)C(=O)\C(=C1O)C(N)=O | 85.1% | 91.5% | 81.1% | 97.1% | 90.4% | 98.6% | 98.2% | 113% | 96.5% | 97.8% | 91.6% | 104% | 97.8% | 82.5% | 119% | 112% | 124% | 118% | 118% | 105% | 93.9% | 79.7% | 112% | 121% | 86.7% | 108% | 122% | 125% | 106% | 123% | 114% | 107% | 91.6% |
| c1cc(OCCN2CCCCC2)cc(-c2n[nH]c3ccc(-c4nc[nH]n4)cc23)c1 | 109% | 102% | 113% | 107% | 120% | 105% | 82.8% | 57.6% | 99.9% | 87.8% | 60.4% | 95.9% | 99.9% | 104% | 97.8% | 107% | 110% | 90.6% | 54.4% | 97.3% | 92.1% | 47.6% | 83.9% | 105% | 99.3% | 119% | 126% | 107% | 103% | 48.8% | 89.4% | 76.7% | 53.7% |
| N/C(=N\C(=O)c1nc(Cl)c(N)nc1N)NCc1ccccc1 | 74.5% | 91.8% | 92.9% | 106% | 91.3% | 94.6% | 113% | 102% | 98.8% | 85% | 77.2% | 76.4% | 91.1% | 95.2% | 94.3% | 83.8% | 96.5% | 84.3% | 97.3% | 94.6% | 62.3% | 43.5% | 91% | 103% | 94% | 102% | 81.6% | 99.8% | 94.2% | 99.5% | 90.8% | 76.2% | 59.7% |
| O=C1[O][Pt]2([NH]C3CCCCC3[NH]2)[O]C1=O (stereo unspecified) | 95.9% | 110% | 102% | 107% | 105% | 108% | 101% | 91.5% | 27% | 3.68% | 4.13% | 74% | 77.5% | 69% | 66.6% | 83.8% | 84% | 81.7% | 60.3% | 15% | 2.66% | 2.68% | 84.7% | 97.5% | 104% | 114% | 108% | 102% | 118% | 91.3% | 42.6% | 3.5% | 3.34% |
